# Experimental data: paper PMC10134273 (Cancer Medicine, 2023)
# Where two headings read alike, the source gives them in different places.
# Legend:
# [1] = Phase 1 plasma pharmacokinetics of EVER4010001; assay type: in vivo, human
# Text: After a screening period of up to 28 days, eligible patients received treatment according to a standard “3+3” dose escalation design. […] Treatment continued until unacceptable toxicity, progressive disease, and/or at the discretion of the Investigator or patient's withdrawal of consent.
# advanced solid tumors = test: Tumor response per RECIST v1.1; assay type: in vivo, human
# [2] = Cycle 1, Day 8, 40 mg BID (N=3) + pembrolizumab
# [3] = Cycle 1, Day 8, 60 mg BID (N=3) + pembrolizumab
# [4] = Cycle 1, Day 8, 80 mg BID (N=6) + pembrolizumab
# [5] = Cycle 1, Day 8, 100 mg BID (N=7) + pembrolizumab
# [6] = 40 mg BID (N=3) + pembrolizumab
# [7] = 60 mg BID (N=3) + pembrolizumab
# [8] = 80 mg BID (N=6) + pembrolizumab
# [9] = 80 mg BID group + pembrolizumab
# [10] = 100 mg BID (N=7) + pembrolizumab
smiles,measurement,setting,value
"COCCNc1cc(NC(=O)N2CCCc3cc(CN4CCN(C)CC4=O)c(C=O)nc32)ncc1C#N [EVER4010001, roblitinib]",Mean t1/2 (SD),[1]; [2],4.90 (2.59) Hour
same,"Median tmax (Min, Max)",[1]; [2],"1.030 (0.57, 2.00) Hour"
same,Geometric mean AUC0–t (geometric CV%),[1]; [3],3212.66 (27.61) Hour·ng/ml
same,"Mean Rac, drug accumulation ratio (SD)",[1]; [3],1.31 (0.11)
same,Mean t1/2 (SD),[1]; [3],5.78 (1.12) Hour
same,"Median tmax (Min, Max)",[1]; [3],"0.970 (0.93, 1.07) Hour"
same,Geometric mean AUC0–t (geometric CV%),[1]; [4],4284.35 (25.05) Hour·ng/ml
same,"Mean Rac, drug accumulation ratio (SD)",[1]; [4],1.16 (0.08)
same,Mean t1/2 (SD),[1]; [4],4.12 (0.90) Hour
same,"Median tmax (Min, Max)",[1]; [4],"0.990 (0.25, 1.05) Hour"
same,Geometric mean AUC0–t (geometric CV%),[1]; [5],6214.09 (24.13) Hour·ng/ml
same,"Mean Rac, drug accumulation ratio (SD)",[1]; [5],1.23 (0.05)
same,Mean t1/2 (SD),[1]; [5],4.97 (0.55) Hour
same,"Median tmax (Min, Max)",[1]; [5],"0.970 (0.50, 2.97) Hour"
same,accumulation ratio (Rac),[1]; Cycle 1 Day 8 vs Cycle 1 Day 1,around 1
same,steady state reached,"[1]; after repeated BID dosing, based on T1/2",before Cycle 1 Day 8
same,Cmax,"[1]; human, plasma, oral, Cycle 1, Day 1, 40 mg BID (N=3) + pembrolizumab, read-out: Geometric mean Cmax (geometric CV%)",560 ng/mL
same,Cmax,"[1]; human, plasma, oral, Cycle 1, Day 1, 60 mg BID (N=3) + pembrolizumab, read-out: Geometric mean Cmax (geometric CV%)",958 ng/mL
same,Cmax,"[1]; human, plasma, oral, Cycle 1, Day 1, 80 mg BID (N=6) + pembrolizumab, read-out: Geometric mean Cmax (geometric CV%)",897 ng/mL
same,Cmax,"[1]; human, plasma, oral, Cycle 1, Day 1, 100 mg BID (N=7) + pembrolizumab, read-out: Geometric mean Cmax (geometric CV%)",1340 ng/mL
same,Cmax,"[1]; human, plasma, oral, Cycle 1, Day 8, 40 mg BID (N=3) + pembrolizumab, read-out: Geometric mean Cmax (geometric CV%)",427 ng/mL
same,Cmax,"[1]; human, plasma, oral, Cycle 1, Day 8, 60 mg BID (N=3) + pembrolizumab, read-out: Geometric mean Cmax (geometric CV%)",749 ng/mL
same,Cmax,"[1]; human, plasma, oral, Cycle 1, Day 8, 80 mg BID (N=6) + pembrolizumab, read-out: Geometric mean Cmax (geometric CV%)",991 ng/mL
same,Cmax,"[1]; human, plasma, oral, Cycle 1, Day 8, 100 mg BID (N=7) + pembrolizumab, read-out: Geometric mean Cmax (geometric CV%)",1330 ng/mL
same,AUC(0-t),"[1]; human, plasma, oral, Cycle 1 Day 1, range across dose levels, read-out: geometric mean AUC0–t",2360 to 5460 ng·h/mL
same,Cmax,"[1]; human, plasma, oral, Cycle 1 Day 1, range across dose levels, read-out: geometric mean Cmax",560 to 1340 ng/mL
same,AUC(0-t),"[1]; human, plasma, oral, range across 40-100 mg BID dose levels (abstract), read-out: AUC0–t",2370 to 5480 ng·h/mL
same,Cmax,"[1]; human, plasma, oral, range across 40-100 mg BID dose levels (abstract), read-out: maximum observed concentration (Cmax)",606 to 1350 ng/mL
same,half-life,"[1]; human, plasma, oral, range across 40-100 mg BID dose levels, read-out: Mean plasma terminal half-life (T1/2)",4 to 4.92 h
same,Tmax,"[1]; human, plasma, oral, range across 40-100 mg BID dose levels, read-out: Median time to peak concentration (Tmax)",0.55 to 1.03 h
same,Best overall response: Complete response,advanced solid tumors; [6],0 n (%)
same,Best overall response: Not evaluable,advanced solid tumors; [6],0 n (%)
same,Best overall response: Partial response,advanced solid tumors; [6],0 n (%)
same,Best overall response: Progressive disease,advanced solid tumors; [6],1 (33.3) n (%)
same,Best overall response: Stable disease,advanced solid tumors; [6],2 (66.7) n (%)
same,Disease control rate (CR+PR+SD),advanced solid tumors; [6],2 (66.7) n (%)
same,Objective response (CR+PR),advanced solid tumors; [6],0 n (%)
same,DCR,advanced solid tumors; 40 mg BID group + pembrolizumab,66.7%
same,Best overall response: Complete response,advanced solid tumors; [7],0 n (%)
same,Best overall response: Not evaluable,advanced solid tumors; [7],0 n (%)
same,Best overall response: Partial response,advanced solid tumors; [7],0 n (%)
same,Best overall response: Progressive disease,advanced solid tumors; [7],2 (66.7) n (%)
same,Best overall response: Stable disease,advanced solid tumors; [7],1 (33.3) n (%)
same,Disease control rate (CR+PR+SD),advanced solid tumors; [7],1 (33.3) n (%)
same,Objective response (CR+PR),advanced solid tumors; [7],0 n (%)
same,DCR,advanced solid tumors; 60 mg BID group + pembrolizumab,33.3%
same,Best overall response: Complete response,advanced solid tumors; [8],0 n (%)
same,Best overall response: Not evaluable,advanced solid tumors; [8],1 (16.7) n (%)
same,Best overall response: Partial response,advanced solid tumors; [8],1 (16.7) n (%)
same,Best overall response: Progressive disease,advanced solid tumors; [8],2 (33.3) n (%)
same,Best overall response: Stable disease,advanced solid tumors; [8],2 (33.3) n (%)
same,Disease control rate (CR+PR+SD),advanced solid tumors; [8],3 (50.0) n (%)
same,Objective response (CR+PR),advanced solid tumors; [8],1 (16.7) n (%)
same,DCR,advanced solid tumors; [9],50%
same,ORR,advanced solid tumors; [9],16.7%
same,Best overall response: Complete response,advanced solid tumors; [10],0 n (%)
same,Best overall response: Not evaluable,advanced solid tumors; [10],1 (14.3) n (%)
same,Best overall response: Partial response,advanced solid tumors; [10],0 n (%)
same,Best overall response: Stable disease,advanced solid tumors; [10],0 n (%)
same,Disease control rate (CR+PR+SD),advanced solid tumors; [10],0 n (%)
same,Objective response (CR+PR),advanced solid tumors; [10],0 n (%)
same,DCR,advanced solid tumors; 100 mg BID group + pembrolizumab,0%
same,ORR,"advanced solid tumors; across all doses, + pembrolizumab",5.3%
